Measured values reported in ChEMBL document CHEMBL3784998, “Synthesis and biological evaluation ofd-gluconhydroximo-1,5-lactam and its oxime-substituted derivatives as pharmacological chaperones for the treatment of Gaucher disease” (Medchemcomm, 2016).
Numbering of substitutions follows the chain as printed. Activity calls are given as the source filed them. The calls are words filed in the database; no cut-off is given here.

Columns and labels:
Beta-galactosidase = Beta-galactosidase (Escherichia coli K-12, UniProt P00722); assay: Inhibition of Escherichia coli beta-galactosidase
Beta-galactosidase, sequence (P00722 whole entry): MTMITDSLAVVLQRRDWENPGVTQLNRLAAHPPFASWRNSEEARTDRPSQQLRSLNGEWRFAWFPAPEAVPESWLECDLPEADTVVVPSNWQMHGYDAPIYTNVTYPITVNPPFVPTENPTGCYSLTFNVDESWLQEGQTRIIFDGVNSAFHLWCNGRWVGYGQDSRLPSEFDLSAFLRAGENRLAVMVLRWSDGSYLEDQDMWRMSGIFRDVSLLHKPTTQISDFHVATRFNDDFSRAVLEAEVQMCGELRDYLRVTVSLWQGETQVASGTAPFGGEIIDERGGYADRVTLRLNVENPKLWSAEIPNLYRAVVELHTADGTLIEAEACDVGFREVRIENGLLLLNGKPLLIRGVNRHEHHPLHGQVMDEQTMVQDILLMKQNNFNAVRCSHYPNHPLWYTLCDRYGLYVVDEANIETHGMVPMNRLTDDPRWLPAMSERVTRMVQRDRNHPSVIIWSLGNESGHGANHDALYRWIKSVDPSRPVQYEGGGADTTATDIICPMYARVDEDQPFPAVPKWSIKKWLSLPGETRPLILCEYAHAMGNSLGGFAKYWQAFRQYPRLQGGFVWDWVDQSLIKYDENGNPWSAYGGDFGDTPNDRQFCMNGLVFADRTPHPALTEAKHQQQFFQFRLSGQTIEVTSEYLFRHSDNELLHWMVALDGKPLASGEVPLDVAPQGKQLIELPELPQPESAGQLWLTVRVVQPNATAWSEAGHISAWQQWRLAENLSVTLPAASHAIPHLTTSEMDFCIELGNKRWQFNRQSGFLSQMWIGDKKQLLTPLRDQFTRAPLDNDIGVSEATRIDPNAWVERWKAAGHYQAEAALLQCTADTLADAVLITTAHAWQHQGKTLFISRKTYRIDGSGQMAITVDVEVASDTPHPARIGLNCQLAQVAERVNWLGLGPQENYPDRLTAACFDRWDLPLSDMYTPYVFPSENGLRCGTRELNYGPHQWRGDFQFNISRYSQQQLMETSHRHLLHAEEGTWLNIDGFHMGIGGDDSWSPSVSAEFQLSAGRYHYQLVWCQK

[1] = Cytotoxicity against wild type human CCC-ESF1 cells at 100 uM after 24 hrs by MTT assay; format: cell-based; conditions: ccc-esf1, 24 h
[2] = system: T1, Lysosomal acid glucosylceramidase (Homo sapiens), P04062 [N409S]; assay: Pharmacological chaperone activity at beta-glucocerebrosidase N370S mutant in Gaucher disease patient-derived lymphoblasts with GCase N370S mutant assessed as increase in enzyme activity at 3.125 to 100 uM after 3 days by fluorimetric analysis relative to control
T1 sequence (whole entry): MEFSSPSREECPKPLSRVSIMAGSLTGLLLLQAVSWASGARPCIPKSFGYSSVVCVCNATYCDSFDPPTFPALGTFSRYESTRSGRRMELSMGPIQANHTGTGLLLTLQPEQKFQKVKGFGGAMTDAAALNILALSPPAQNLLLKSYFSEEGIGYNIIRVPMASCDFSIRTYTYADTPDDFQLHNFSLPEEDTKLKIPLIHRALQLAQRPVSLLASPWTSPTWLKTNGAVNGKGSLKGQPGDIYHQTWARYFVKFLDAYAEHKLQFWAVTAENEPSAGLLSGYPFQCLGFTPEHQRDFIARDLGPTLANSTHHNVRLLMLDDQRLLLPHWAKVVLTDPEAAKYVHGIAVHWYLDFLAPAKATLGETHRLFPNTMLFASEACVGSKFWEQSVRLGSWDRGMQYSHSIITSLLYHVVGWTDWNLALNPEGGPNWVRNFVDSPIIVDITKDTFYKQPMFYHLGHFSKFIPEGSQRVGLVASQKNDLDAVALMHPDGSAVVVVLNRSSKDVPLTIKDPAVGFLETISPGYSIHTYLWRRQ

[3] = target: T2, Lysosomal acid glucosylceramidase (Homo sapiens, UniProt P04062); assay: Inhibition of human recombinant imiglucerase using 4-MU-beta-D-Glu as substrate at pH 7.0 after 30 mins by fluorometric analysis
T2 sequence (P04062 whole entry): T1 sequence (whole entry) with S409N

Alpha-galactosidase = Alpha-galactosidase (Coffea arabica, UniProt Q42656); assay: Inhibition of green coffee bean alpha-galactosidase
Alpha-galactosidase, sequence (Q42656 whole entry): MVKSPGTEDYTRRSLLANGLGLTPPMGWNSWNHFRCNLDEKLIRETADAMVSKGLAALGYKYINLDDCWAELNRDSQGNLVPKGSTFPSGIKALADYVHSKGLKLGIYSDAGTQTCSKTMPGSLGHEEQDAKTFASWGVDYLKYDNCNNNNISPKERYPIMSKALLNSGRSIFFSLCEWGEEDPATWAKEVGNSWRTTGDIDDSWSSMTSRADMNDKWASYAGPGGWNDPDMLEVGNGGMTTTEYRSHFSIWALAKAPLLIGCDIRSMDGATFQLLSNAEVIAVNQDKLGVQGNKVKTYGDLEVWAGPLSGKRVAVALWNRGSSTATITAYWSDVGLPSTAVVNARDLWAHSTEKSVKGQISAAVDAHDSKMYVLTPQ

[4] = system: T1, Lysosomal acid glucosylceramidase (Homo sapiens), P04062 [N409S]; assay: Pharmacological chaperone activity at beta-glucocerebrosidase N370S mutant in Gaucher disease patient-derived lymphoblasts with GCase N370S mutant assessed as increase in enzyme activity at 10 uM after 3 days by fluorimetric analysis relative to control
[5] = Inhibition of almond beta glucosidase; design: species or system Prunus dulcis
[6] = target: T2, Lysosomal acid glucosylceramidase; assay: Competitive inhibition of human recombinant imiglucerase using 4-MU-beta-D-Glu as substrate at pH 5.2 after 30 mins by fluorometry based Lineweaver-Burk plot analysis
[7] = target: T2, Lysosomal acid glucosylceramidase; assay: Inhibition of human recombinant imiglucerase using 4-MU-beta-D-Glu as substrate at pH 5.2 after 30 mins by fluorometric analysis

SMILES | IC50 (Beta-galactosidase) | Activity [1] | fold change (FC) [2] | IC50 [3] | IC50 (Alpha-galactosidase) | Activity [4] | IC50 [5] | Ki [6] | IC50 [7]
OC[C@H]1N/C(=N/O)[C@H](O)[C@@H](O)[C@@H]1O | > 100 µM | Non-toxic | 1.28 | 65.8 µM | > 100 µM | inactive | 80.3 µM | 4.28 µM | 5.84 µM
O=C(Nc1ccc2nsnc2c1)O/N=C1\N[C@H](CO)[C@@H](O)[C@H](O)[C@H]1O | > 100 µM | Non-toxic | 1.23 | 12.5 µM | > 100 µM |  | 6.21 µM | 6.38 µM | 5.75 µM
OC[C@H]1CNC[C@@H](O)[C@@H]1O [AFEGOSTAT] | > 100 µM | Non-toxic | 1.38 |  | > 100 µM |  | > 100 µM |  | 
CSc1ccc(NC(=O)O/N=C2\N[C@H](CO)[C@@H](O)[C@H](O)[C@H]2O)cc1 | > 100 µM | Non-toxic | 1.19 | 17.2 µM | > 100 µM |  | 8.38 µM | 8.12 µM | 9.15 µM
CC(C)(C)NC(=O)O/N=C1\N[C@H](CO)[C@@H](O)[C@H](O)[C@H]1O | > 100 µM | Non-toxic | 1.3 | 21.5 µM | > 100 µM |  | 46 µM | 30.1 µM | 29.1 µM
O=C(Nc1cccc2ccccc12)O/N=C1\N[C@H](CO)[C@@H](O)[C@H](O)[C@H]1O | > 100 µM | Non-toxic | 1.47 | 1.43 µM | > 100 µM |  | 10.7 µM | 7.94 µM | 7.21 µM
O=C(Nc1cccs1)O/N=C1\N[C@H](CO)[C@@H](O)[C@H](O)[C@H]1O | > 100 µM | Non-toxic | 1.36 | 13.2 µM | > 100 µM |  | 2.68 µM | 0.64 µM | 0.84 µM
O=C(NC12CC3CC(CC(C3)C1)C2)O/N=C1\N[C@H](CO)[C@@H](O)[C@H](O)[C@H]1O | > 100 µM | Non-toxic | 1.35 | 8.37 µM | > 100 µM |  | 14.4 µM | 1.52 µM | 1.85 µM
O=C(Nc1c(F)cccc1F)O/N=C1\N[C@H](CO)[C@@H](O)[C@H](O)[C@H]1O | > 100 µM | Non-toxic | 1.35 | 21.9 µM | > 100 µM |  | 7.59 µM | 17.4 µM | 16.8 µM
O=C(Nc1c(Cl)cccc1C(F)(F)F)O/N=C1\N[C@H](CO)[C@@H](O)[C@H](O)[C@H]1O | > 100 µM | Non-toxic | 1.32 | 23.5 µM | > 100 µM |  | 5.82 µM | 12.3 µM | 18.1 µM
O=C(Nc1ccccc1)O/N=C1\N[C@H](CO)[C@@H](O)[C@H](O)[C@H]1O | > 100 µM | Non-toxic | 1.49 | 19.3 µM | > 100 µM |  | 31.1 µM | 11.5 µM | 12.5 µM
CCCCCCCCCN1C[C@H](O)[C@@H](O)[C@H](O)[C@H]1CO | > 100 µM | Non-toxic |  |  | > 100 µM |  | > 100 µM |  | 
O=C(Nc1ccc(Oc2ccccc2)cc1)O/N=C1\N[C@H](CO)[C@@H](O)[C@H](O)[C@H]1O | > 100 µM | Non-toxic | 1.17 | 3.32 µM | > 100 µM |  | 14.4 µM | 0.05 µM | 0.32 µM
CCCCCCCCCCCCNC(=O)O/N=C1\N[C@H](CO)[C@@H](O)[C@H](O)[C@H]1O | > 100 µM | Non-toxic | 1.93 | 5.74 µM | > 100 µM |  | > 100 µM | 0.14 µM | 0.7 µM
